Experimental data: patent US6537986B2, “Oxazolidinone antibacterial agents having a thiocarbonyl funtionality” (Pharmacia & Upjohn Company, priority 1997, dated 2003)
In brackets after ≈: the same amount, converted by molar mass.

Legend:
[1] = test system: S. pneumoniae (SPNE 9912); experiment: MIC, standard agar dilution method; format: cell-based; settings: Streptococcus pneumoniae, Table II, Mueller Hinton agar, incubated overnight at 35° C., read-out: SPNE 9912 MIC
Method: (§1) MIC Test Method The in vitro MICs of test compounds were determined by a standard agar dilution method. […] Serial 2-fold dilutions of each sample are made using 1.0 ml aliquots of sterile distilled water. To each 1.0 ml aliquot of drug is added 9 ml of molten Mueller Hinton agar medium. The drug-supplemented agar is mixed, poured into 15×100 mm petri dishes, and allowed to solidify and dry prior to inoculation. Vials of each of the test organisms are maintained frozen in the vapor phase of a liquid nitrogen freezer. Test cultures are grown overnight at 35° C. on the medium appropriate for the organism. Colonies are harvested with a sterile swab, and cell suspensions are prepared in Trypticase Soy broth (TSB) to equal the turbidity of a 0.5 McFarland standard. A 1:20 dilution of each suspension is made in TSB. […] The plates are incubated overnight at 35° C. Following incubation the Minimum Inhibitory Concentration (MIC μg/ml), the lowest concentration of drug that inhibits visible growth of the organism, is read and recorded.

[2] = test system: S. aureus (SAUR 9213); experiment: MIC, standard agar dilution method; format: cell-based; settings: Staphylococcus aureus, Table II, Mueller Hinton agar, incubated overnight at 35° C., read-out: SAUR 9213 MIC
Method: as §1

[3] = test system: S. pyogenes (SPYO 152); experiment: MIC, standard agar dilution method; format: cell-based; settings: Streptococcus pyogenes, Table II, Mueller Hinton agar, incubated overnight at 35° C., read-out: SPYO 152 MIC
Method: as §1

[4] = test system: Moraxella catarrhalis (MCAT 30610); experiment: MIC, standard agar dilution method; format: cell-based; settings: Moraxella catarrhalis, Table II, Mueller Hinton agar, incubated overnight at 35° C.
Method: as §1

[5] = test system: Haemophilus influenzae (HINF 30063); experiment: MIC, standard agar dilution method; format: cell-based; settings: Haemophilus influenzae, Table II, Mueller Hinton agar, incubated overnight at 35° C.
Method: as §1

[6] = test system: Enterococcus faecalis (EFAE 9217); experiment: MIC, standard agar dilution method; format: cell-based; settings: Table II, key: Enterococcus faecalis, Mueller Hinton agar, incubated overnight at 35° C., read-out: EFAE 9217 MIC
Method: as §1

[7] = test system: S. epidermidis (SEPI 30593); experiment: MIC, standard agar dilution method; format: cell-based; settings: Staphylococcus epidermidis, Table II, Mueller Hinton agar, incubated overnight at 35° C.
Method: as §1

[8] = test system: E. Faecium (EFAE 12712); experiment: MIC, standard agar dilution method; format: cell-based; settings: Enterococcus faecium; Table II; key: E. Faecium; agar dilution, Mueller Hinton agar, incubated overnight at 35° C.; read-out: EFAE 12712 MIC
Method: as §1

SMILES	melting point	MIC [1]	MIC [2]	MIC [3]	MIC [4]	MIC [5]	MIC [6]	MIC [7]	MIC [8]
CCC(=S)NC[C@H]1CN(c2ccc(N3CCOCC3)c(F)c2)C(=O)O1 [Example 14, (S)-N-[[3-[3-Fluoro-4-(4-morpholinyl)phenyl]-2-oxo-5-oxazolidinyl]methyl]thiopropion-amide]	138 to 139 °C	0.25 µg/mL (≈ 0.68 µM)	1 µg/mL (≈ 2.72 µM)	0.5 µg/mL (≈ 1.36 µM)	1 µg/mL (≈ 2.72 µM)	8 µg/mL (≈ 21.8 µM)	1 µg/mL (≈ 2.72 µM)	0.5 µg/mL (≈ 1.36 µM)	1 µg/mL (≈ 2.72 µM)
O=C1O[C@@H](CNC(=S)C(F)(F)F)CN1c1ccc(N2CCOCC2)c(F)c1 [Example 16, (S)-N-[[3-[3-Fluoro-4-(4-moropholinyl)phenyl]-2-oxo-5-oxazolidinyl]methyl]-α,α,α-trifluorothioacetamide]	151 to 152 °C	2 µg/mL (≈ 4.91 µM)	8 µg/mL (≈ 19.6 µM)	8 µg/mL (≈ 19.6 µM)	32 µg/mL (≈ 78.5 µM)	> 64 µg/mL	16 µg/mL (≈ 39.3 µM)	8 µg/mL (≈ 19.6 µM)	16 µg/mL (≈ 39.3 µM)
O=C1O[C@@H](CNC(=S)C(F)F)CN1c1ccc(N2CCOCC2)c(F)c1 [Example 18, (S)-N-[[3-[3-Fluoro-4-(4-morpholinyl)phenyl]-2-oxo-5-oxazolidinyl]methyl]-α,α-difluorothioacetamide]	125 to 127 °C	< 0.5 µg/mL	2 µg/mL (≈ 5.14 µM)	1 µg/mL (≈ 2.57 µM)	4 µg/mL (≈ 10.3 µM)	32 µg/mL (≈ 82.2 µM)	2 µg/mL (≈ 5.14 µM)	1 µg/mL (≈ 2.57 µM)	2 µg/mL (≈ 5.14 µM)
CC(=S)NC[C@H]1CN(c2ccc(N3CCN(C(=O)CO)CC3)c(F)c2)C(=O)O1 [Example 25, (S)-N-[[3-[3-Fluoro-4-[4-(hydroxyacetyl)-1-piperazinyl]phenyl]-2-oxo-5-oxazolidinyl]methyl]thioacetamide]	163 to 165 °C	< 0.125 µg/mL	0.5 µg/mL (≈ 1.22 µM)	< 0.125 µg/mL	2 µg/mL (≈ 4.87 µM)	2 µg/mL (≈ 4.87 µM)	0.5 µg/mL (≈ 1.22 µM)	0.25 µg/mL (≈ 0.609 µM)	0.5 µg/mL (≈ 1.22 µM)
CC(=S)NC[C@H]1CN(c2ccc(N3CCSCC3)c(F)c2)C(=O)O1 [Example 26, (S)-N-[[3-[3-Fluoro-4-(4-thiomorpholinyl)phenyl]-2-oxo-5-oxazolidinyl]methyl]thio-acetamide]	155 to 156 °C	0.25 µg/mL (≈ 0.677 µM)	1 µg/mL (≈ 2.71 µM)	0.5 µg/mL (≈ 1.35 µM)	2 µg/mL (≈ 5.41 µM)	16 µg/mL (≈ 43.3 µM)	1 µg/mL (≈ 2.71 µM)	0.5 µg/mL (≈ 1.35 µM)	1 µg/mL (≈ 2.71 µM)
NC(=S)NC[C@H]1CN(c2ccc(N3CCN(C(=O)CO)CC3)c(F)c2)C(=O)O1 [Example 31, (S)-N-[[3-[3-Fluoro-4-[4-(hydroxyacetyl)-1-piperazinyl]phenyl]-2oxo-5-oxazolidinyl]-methyl]thiourea]	209 to 210 °C	< 0.125 µg/mL	2 µg/mL (≈ 4.86 µM)	0.25 µg/mL (≈ 0.608 µM)	1 µg/mL (≈ 2.43 µM)	4 µg/mL (≈ 9.72 µM)	1 µg/mL (≈ 2.43 µM)	1 µg/mL (≈ 2.43 µM)	1 µg/mL (≈ 2.43 µM)
NC(=S)NC[C@H]1CN(c2ccc3c(c2)CCN3C(=O)CO)C(=O)O1 [Example 32, (S)-N-[[3-[1-(Hydroxyacetyl)-5-indolinyl]-2-oxo-5-5 oxazolidinyl]methyl]thiourea]	214 to 215 °C (dec.)	0.25 µg/mL (≈ 0.713 µM)	16 µg/mL (≈ 45.7 µM)	0.25 µg/mL (≈ 0.713 µM)	2 µg/mL (≈ 5.71 µM)	8 µg/mL (≈ 22.8 µM)	4 µg/mL (≈ 11.4 µM)	2 µg/mL (≈ 5.71 µM)	2 µg/mL (≈ 5.71 µM)
NC(=S)NC[C@H]1CN(c2ccc(N3CC[S+]([O-])CC3)c(F)c2)C(=O)O1 [Example 33, (S)-N-[[3-[3-Fluoro-4-(4-thiomorpholinyl)phenyl]-2-oxo-5-oxazolidinyl]methyl]thiourea, thiomorpholine S-oxide]	212 to 213 °C	0.25 µg/mL (≈ 0.647 µM)	4 µg/mL (≈ 10.3 µM)	0.25 µg/mL (≈ 0.647 µM)	2 µg/mL (≈ 5.17 µM)	4 µg/mL (≈ 10.3 µM)	4 µg/mL (≈ 10.3 µM)	2 µg/mL (≈ 5.17 µM)	1 µg/mL (≈ 2.59 µM)

Continued, values first:

melting point	MIC [1]	MIC [2]	MIC [3]	MIC [4]	MIC [5]	MIC [6]	MIC [7]	MIC [8]	SMILES
175 to 176 °C (dec.)	< 0.125 µg/mL	1 µg/mL (≈ 2.86 µM)	0.25 µg/mL (≈ 0.715 µM)	2 µg/mL (≈ 5.72 µM)	4 µg/mL (≈ 11.4 µM)	0.5 µg/mL (≈ 1.43 µM)	0.25 µg/mL (≈ 0.715 µM)	0.5 µg/mL (≈ 1.43 µM)	CC(=S)NC[C@H]1CN(c2ccc3c(c2)CCN3C(=O)CO)C(=O)O1 [Example 24, (S)-N-[[3-[1-(Hydroxyacetyl)-5-indolinyl]-2-oxo-5-oxazolidinyl]methyl]thioacetamide]
176 to 177 °C	< 0.125 µg/mL	0.5 µg/mL (≈ 1.3 µM)	0.25 µg/mL (≈ 0.649 µM)	2 µg/mL (≈ 5.19 µM)	4 µg/mL (≈ 10.4 µM)	1 µg/mL (≈ 2.59 µM)	0.5 µg/mL (≈ 1.3 µM)	0.5 µg/mL (≈ 1.3 µM)	CC(=S)NC[C@H]1CN(c2ccc(N3CC[S+]([O-])CC3)c(F)c2)C(=O)O1 [Example 27, (S)-N-[[3-[3-Fluoro-4-(4-thiomorpholinyl)phenyl]-2-oxo-5-oxazolidinyl]methyl]thio-acetamide, thiomorpholine S-oxide]
110 to 111 °C (dec.)	< 0.125 µg/mL	0.25 µg/mL (≈ 0.583 µM)	< 0.125 µg/mL	0.5 µg/mL (≈ 1.17 µM)	2 µg/mL (≈ 4.67 µM)	0.25 µg/mL (≈ 0.583 µM)	0.25 µg/mL (≈ 0.583 µM)	0.25 µg/mL (≈ 0.583 µM)	CC(=S)NC[C@H]1CN(c2cc(F)c(N3CCN(C(=O)CO)CC3)c(F)c2)C(=O)O1 [Example 29, (S)-N-[[3-[3,5-Difluoro-4-[4-(hydroxyacetyl)-1-piperazinyl]phenyl]-2-oxo-5-oxazolidinyl]methyl]thioacetamide]
214 to 215 °C	< 0.125 µg/mL	4 µg/mL (≈ 11.9 µM)	0.25 µg/mL (≈ 0.743 µM)	2 µg/mL (≈ 5.95 µM)	8 µg/mL (≈ 23.8 µM)	1 µg/mL (≈ 2.97 µM)	1 µg/mL (≈ 2.97 µM)	0.5 µg/mL (≈ 1.49 µM)	NC(=S)NC[C@H]1CN(c2ccc(-n3cncn3)c(F)c2)C(=O)O1 [Example 30]
